From patent US20050215551A1, “1-[2H-1-benzopyran-2-one-8-yl]- piperazine derivatives for the treatment of movement disorders” (SOLVAY PHARMACEUTICALS B.V., priority 2004, published 2005)
Marks after values point to notes of the source that are not given here.

Key:
β1-adrenergic = β1-adrenergic (Homo sapiens, UniProt P08588); assay: Receptor binding β1-adrenergic; details: radioligand [3H]-CGP 12177, read-out: Ki(nM) Compound 1
Procedure: (§1) Receptor binding data were obtained by CEREP (128, rue Danton, 92500 Rueil-Malmaison, France) or at Solvay Pharmaceuticals B.V., using well documented standard procedures. Affinity for 5-HT1A receptors for instance, was determined by testing the ability of the compounds of the invention to displace [^3H]-2-(di-n-propylamino)-8-hydroxytetralin ([^3H]-8-OH-DPAT) from its specific binding sites in rat frontal cortex homogenates. This test is based on the method described by Gozlan et al. (Nature, 305, (1983), pages 140-142).
(§2) The binding data collected in the table below were either obtained by CEREP (128, rue Danton, 92500 Rueil-Malmaison, France) or at Solvay Pharmaceuticals B.V., using well documented standard procedures.

δ-opiate = δ-opiate (Rattus norvegicus, UniProt P33533); assay: Receptor binding δ-opiate; details: radioligand [3H]-DPDPE, read-out: Ki(nM) Compound 1
Procedure: as §1, §2

GDNF = assay: Induction of growth factors: GDNF RNA in brain areas by quantitative PCR; type: in vivo; details: 3 mg/kg p.o. once daily, 3 weeks
Procedure: Compounds of the invention (3 mg/kg, p.o.) or vehicle are administered once daily during a period of 3 weeks (n=8 animals per treatment group). 24 hours after the last dose the animals are sacrificed (using CO2/O2 anesthesia), the brains are removed and the dissected. RNA is extracted from the individual brain samples and induction of the growth factors BDNF and GDNF is determined by quantitative PCR. Total RNA is isolated with the Trizol method (Invitrogen) from the brain pieces. cDNA is made starting with 2 μg of total RNA (pretreated for 30 min with DNAse (Ambion) in first strand buffer) using the reverse transcriptase Superscript II (Invitrogen). Quantification of […] by real time PCR makes use of the observation that the early cycles of PCR are characterized by an exponential increase in target amplification. The accumulation of PCR product is measured using Sybergreen II. Primers are designed using the software package Primer Express (Applied Biosystems). Expression levels of the housekeeping genes ornithine decarboxylase (ODC_ex8) and alpha tubulin (TUBA) used for normalization and as control for good cDNA synthesis.

Vasopressine-V1A = Vasopressine-V1A (Homo sapiens, UniProt P37288); assay: Receptor binding Vasopressine-V1A; details: radioligand [3H]-vasopressine, read-out: Ki(nM) Compound 1
Procedure: as §1, §2

Adenosine-A1 = Adenosine-A1 (Homo sapiens, UniProt P30542); assay: Receptor binding Adenosine-A1; details: radioligand [3H]-DPCPX, read-out: Ki(nM) Compound 1
Procedure: as §1, §2

Dopamine-D3 = Dopamine-D3 (Homo sapiens, UniProt P35462); assay: Receptor binding Dopamine-D3; details: radioligand [3H]-spiperone, read-out: Ki(nM) Compound 1
Procedure: as §1, §2

[1] = system: rats with unilateral 6-OHDA lesions; assay: Turning experiments in animals with unilateral 6-hydroxydopamine lesions of the substantia nigra compacta; type: in vivo
Procedure: Male rats (Wistar, Harlan, Netherlands; 400-500 g at time of experiment) are housed in a temperature (20-21±2° C.) and humidity controlled environment and receive water ad libitum except during experimental sessions. Food is restricted to approximately 15 g per rat per day. A 12-hour light-dark cycle (lights on 07.00-19.00 hour) is used.
Unilateral 6-hydroxydopamine (6-OH DA) lesions of the substantia nigra zona compacta are performed using a stereotaxic procedure. One hour prior to surgery, desmethyl-imipramine (20 mg/kg, i.p.) is administered to protect noradrenergic neurons. Rats are anaesthetized with a 3% halothane+0.8 l/min N2O+0.8 l/min O2-gas mixture at 1013 mbar. During surgery the gas mixture is adjusted to 1.75-2% halothane, 0.6 l/min N2O and 0.6 l/min O2. The incisor bar of the stereotaxic instrument (Kopf, Calif., USA) iss set at −3.3 mm, a burr hole was drilled over the substantia nigra pars compacta and 3 μl of a 6-OHDA solution (3.33 mg/ml) is injected (flow rate=0.75 μl/min; the needle is left in place for 4 minutes prior to withdrawal). Coordinates for this procedure are: anterior posterior +3.2 mm from the interaural line; medial/lateral +1.8 mm from the midline and ventral −8.2 from the skull surface. Animals are allowed to recover for approximately 2 weeks prior to testing. Good turning rats are defined as those which elicited at least 20 contralateral turns following amphetamine (2.5 mg/kg sc) in the 5 min time epoch beginning 25 min after administration and a mean of at least 20 contralateral turns recorded over a 30 min period after administration of apomorphine (0.25 mg/kg s.c.). Regular testing with apomorphine (0.1 or 0.25 mg/kg s.c.) is carried out to ensure the reliability of the animals in this procedure.
Eight commercially available (TSE systems Bad Homburg, Germany) ‘rotameter’ units (transparent plastic bowls; 57×55×52 cm) are used for testing. The rats are harnessed and tethered to a rotation sensor interfaced to an IBM compatible personal computer (using the TSE Rotameter Software v. 1.11, TSE systems Bad Homburg, Germany) which registers clockwise or counterclockwise movement. An internal software rotation filter of 10 is used.
Following statistical randomization of the treatment groups rats are pretreated with compounds of the invention (0.1-3 mg/kg p.o.) or vehicle (2 ml/kg) and placed in the rotameters the contralateral rotational behaviour is then measured. In further studies the effects of L-DOPA (1-10 mg/kg p.o.) are assessed on contralateral rotations. The peripheral decarboxylase inhibitor benserazide (30 mg/kg i.p.) can be used. In combination studies a range of L-DOPA (1-10) doses and doses of compounds of the invention (0.1-3 mg/kg p.o.) can be combined.

PACAP = PACAP (Rattus norvegicus, UniProt P32215); assay: Receptor binding PACAP; details: radioligand [125I]-PACAP 1-27, read-out: Ki(nM) Compound 1
Procedure: as §1, §2

Muscarine-M4 = Muscarine-M4 (Homo sapiens, UniProt P08173); assay: Receptor binding Muscarine-M4; details: radioligand [3H]-4-DAMP, read-out: Ki(nM) Compound 1
Procedure: as §1, §2

VIP1 = VIP1 (Homo sapiens, UniProt P32241); assay: Receptor binding VIP1; details: radioligand [125I]-VIP, read-out: Ki(nM) Compound 1
Procedure: as §1, §2

α1A-adrenergic = α1A-adrenergic (Rattus norvegicus, UniProt P43140); assay: Receptor binding α1A-adrenergic; details: radioligand [3H]-prazosin, read-out: Ki(nM) Compound 1
Procedure: as §1, §2

Chain of α1A-adrenergic (P43140 whole entry): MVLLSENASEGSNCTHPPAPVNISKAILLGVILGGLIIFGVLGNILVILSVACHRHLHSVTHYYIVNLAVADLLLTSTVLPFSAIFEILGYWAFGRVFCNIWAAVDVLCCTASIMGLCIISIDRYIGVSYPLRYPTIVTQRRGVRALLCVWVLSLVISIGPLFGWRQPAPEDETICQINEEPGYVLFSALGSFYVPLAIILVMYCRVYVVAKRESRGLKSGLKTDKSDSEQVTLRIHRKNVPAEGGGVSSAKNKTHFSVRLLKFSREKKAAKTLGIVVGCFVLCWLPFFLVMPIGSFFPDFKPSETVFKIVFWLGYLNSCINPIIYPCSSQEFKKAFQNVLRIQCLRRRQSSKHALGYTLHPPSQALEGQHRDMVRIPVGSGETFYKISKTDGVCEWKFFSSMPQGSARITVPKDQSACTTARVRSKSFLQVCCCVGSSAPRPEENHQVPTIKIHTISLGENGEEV
Chain of VIP1 (P32241 31-457): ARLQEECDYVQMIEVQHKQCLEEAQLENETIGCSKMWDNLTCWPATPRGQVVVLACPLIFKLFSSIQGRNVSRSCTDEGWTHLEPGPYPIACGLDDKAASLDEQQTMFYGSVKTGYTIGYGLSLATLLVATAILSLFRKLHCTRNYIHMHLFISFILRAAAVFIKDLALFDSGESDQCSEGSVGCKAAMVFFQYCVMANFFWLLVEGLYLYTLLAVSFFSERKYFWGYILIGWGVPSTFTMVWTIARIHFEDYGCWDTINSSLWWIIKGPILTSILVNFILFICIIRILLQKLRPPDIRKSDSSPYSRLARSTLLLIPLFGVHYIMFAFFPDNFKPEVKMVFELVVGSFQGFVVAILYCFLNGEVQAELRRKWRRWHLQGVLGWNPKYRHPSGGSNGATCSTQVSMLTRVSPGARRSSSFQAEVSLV
Chain of Dopamine-D3 (P35462 whole entry): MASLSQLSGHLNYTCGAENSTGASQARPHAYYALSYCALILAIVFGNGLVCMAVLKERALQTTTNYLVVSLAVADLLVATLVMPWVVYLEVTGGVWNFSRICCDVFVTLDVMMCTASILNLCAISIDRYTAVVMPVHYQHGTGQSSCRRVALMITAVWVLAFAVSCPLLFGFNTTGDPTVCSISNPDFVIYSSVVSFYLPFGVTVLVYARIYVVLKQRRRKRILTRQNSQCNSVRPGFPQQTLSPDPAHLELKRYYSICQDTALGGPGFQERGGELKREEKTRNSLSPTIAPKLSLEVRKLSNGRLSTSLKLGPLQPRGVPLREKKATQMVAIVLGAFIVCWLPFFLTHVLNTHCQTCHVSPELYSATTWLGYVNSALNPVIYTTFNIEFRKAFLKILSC
Chain of Vasopressine-V1A (P37288 whole entry): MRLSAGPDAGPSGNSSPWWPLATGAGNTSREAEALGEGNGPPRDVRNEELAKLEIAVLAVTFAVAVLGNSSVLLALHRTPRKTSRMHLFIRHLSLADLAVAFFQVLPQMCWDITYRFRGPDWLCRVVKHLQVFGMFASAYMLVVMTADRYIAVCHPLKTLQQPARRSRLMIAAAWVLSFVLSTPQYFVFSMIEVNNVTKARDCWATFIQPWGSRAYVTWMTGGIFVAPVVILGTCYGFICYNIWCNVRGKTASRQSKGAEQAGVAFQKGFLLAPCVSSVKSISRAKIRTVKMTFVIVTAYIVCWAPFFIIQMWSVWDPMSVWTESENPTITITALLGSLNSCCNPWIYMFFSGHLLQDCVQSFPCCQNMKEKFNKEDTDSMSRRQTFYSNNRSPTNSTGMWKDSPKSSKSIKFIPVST
Chain of Adenosine-A1 (P30542 whole entry): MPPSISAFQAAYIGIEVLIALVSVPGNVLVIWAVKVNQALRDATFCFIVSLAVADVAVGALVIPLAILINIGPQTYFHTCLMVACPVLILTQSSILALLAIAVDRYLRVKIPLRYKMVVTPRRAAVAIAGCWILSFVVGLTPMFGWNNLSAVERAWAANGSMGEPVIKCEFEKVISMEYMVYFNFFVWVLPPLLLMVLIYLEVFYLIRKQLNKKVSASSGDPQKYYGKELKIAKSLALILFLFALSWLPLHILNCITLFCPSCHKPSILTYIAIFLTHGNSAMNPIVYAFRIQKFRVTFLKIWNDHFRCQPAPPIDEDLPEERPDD
Chain of β1-adrenergic (P08588 whole entry): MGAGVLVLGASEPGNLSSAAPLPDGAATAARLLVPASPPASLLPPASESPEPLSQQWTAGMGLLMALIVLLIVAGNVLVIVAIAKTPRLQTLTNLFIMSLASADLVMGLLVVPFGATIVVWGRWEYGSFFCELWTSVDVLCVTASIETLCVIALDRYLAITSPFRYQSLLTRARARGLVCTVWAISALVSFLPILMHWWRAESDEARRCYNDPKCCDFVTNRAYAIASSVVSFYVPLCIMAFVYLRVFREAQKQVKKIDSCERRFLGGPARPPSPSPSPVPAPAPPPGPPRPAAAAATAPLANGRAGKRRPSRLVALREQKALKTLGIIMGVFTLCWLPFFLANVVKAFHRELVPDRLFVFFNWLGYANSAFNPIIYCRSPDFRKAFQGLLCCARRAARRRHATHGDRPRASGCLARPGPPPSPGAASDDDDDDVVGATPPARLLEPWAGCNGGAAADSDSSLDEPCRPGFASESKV
Chain of Muscarine-M4 (P08173 whole entry): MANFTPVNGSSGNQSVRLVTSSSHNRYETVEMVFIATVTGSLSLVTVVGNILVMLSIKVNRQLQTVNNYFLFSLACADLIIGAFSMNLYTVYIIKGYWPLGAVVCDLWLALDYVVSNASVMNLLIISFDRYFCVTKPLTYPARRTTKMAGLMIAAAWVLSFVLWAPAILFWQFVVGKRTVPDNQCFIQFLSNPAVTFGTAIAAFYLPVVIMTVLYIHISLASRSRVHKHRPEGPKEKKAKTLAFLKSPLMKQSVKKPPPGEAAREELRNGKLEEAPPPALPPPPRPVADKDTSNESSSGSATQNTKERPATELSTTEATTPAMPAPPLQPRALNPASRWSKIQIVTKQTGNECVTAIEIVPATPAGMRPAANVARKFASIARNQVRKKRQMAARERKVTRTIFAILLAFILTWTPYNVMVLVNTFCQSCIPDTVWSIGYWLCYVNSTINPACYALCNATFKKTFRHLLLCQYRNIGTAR
Chain of PACAP (P32215 20-523): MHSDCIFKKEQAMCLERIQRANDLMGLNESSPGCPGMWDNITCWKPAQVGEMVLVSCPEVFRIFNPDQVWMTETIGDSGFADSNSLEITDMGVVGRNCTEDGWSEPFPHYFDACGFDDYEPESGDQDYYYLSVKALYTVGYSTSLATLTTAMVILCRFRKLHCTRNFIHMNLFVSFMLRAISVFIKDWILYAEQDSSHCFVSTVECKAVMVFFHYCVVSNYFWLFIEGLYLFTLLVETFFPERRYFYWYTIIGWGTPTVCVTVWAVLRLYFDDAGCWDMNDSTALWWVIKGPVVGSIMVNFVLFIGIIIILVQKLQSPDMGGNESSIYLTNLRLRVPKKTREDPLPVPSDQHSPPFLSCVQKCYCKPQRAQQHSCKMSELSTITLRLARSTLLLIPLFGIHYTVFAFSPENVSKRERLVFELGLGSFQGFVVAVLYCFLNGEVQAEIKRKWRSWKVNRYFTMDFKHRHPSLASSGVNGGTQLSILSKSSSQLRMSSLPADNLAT
Chain of δ-opiate (P33533 whole entry): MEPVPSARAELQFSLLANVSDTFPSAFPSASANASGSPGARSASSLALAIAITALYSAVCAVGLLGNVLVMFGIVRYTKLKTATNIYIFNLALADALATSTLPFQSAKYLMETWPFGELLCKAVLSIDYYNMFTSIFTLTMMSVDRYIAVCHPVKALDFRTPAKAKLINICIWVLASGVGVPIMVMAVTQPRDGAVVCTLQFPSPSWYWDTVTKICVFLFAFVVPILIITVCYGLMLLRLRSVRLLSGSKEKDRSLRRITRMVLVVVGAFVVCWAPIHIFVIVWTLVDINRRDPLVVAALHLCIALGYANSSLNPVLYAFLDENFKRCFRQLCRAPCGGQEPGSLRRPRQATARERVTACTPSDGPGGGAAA

With Nc1cc2cccc(N3CCNCC3)c2oc1=O [Compound 1, 3-amino-8-(1-piperazinyl)-2H-1-benzopyran-2-one] the Ki (β1-adrenergic) was 50 nM, the Ki (δ-opiate) was greater than 1000 nM and the “GDNF RNA, fold increase compared to vehicle treatment” value (from here on “GDNF RNA, fold increase”) (GDNF; hippocampus) was 1.7 fold. For the same compound, the “GDNF RNA, fold increase” value (GDNF; nucleus accumbens) was 1.5 fold, the “GDNF RNA, fold increase” value (GDNF; prefrontal cortex) was 1.3 fold and the “GDNF RNA, fold increase” value (GDNF; striatum) was 2.2 fold. For the same compound, the “GDNF RNA, fold increase” value (GDNF; thalamus) was 2.6 fold, the Ki (Vasopressine-V1A) was greater than 1000 nM and the Ki (Adenosine-A1) was greater than 1000 nM. For the same compound, the Ki (Dopamine-D3) was greater than 1000 nM, the “Mean number of turns (rotations contralateral to the direction of a 6-OHDA lesion)” value (from here on “Mean number of turns”) ([1]; 0.3 mg/kg p.o.) was 20.925 and the “Mean number of turns” value ([1]; 0.5 mg/kg p.o.) was 22.988. For the same compound, the “Mean number of turns” value ([1]; 0.75 mg/kg p.o.) was 106.35*, the “Mean number of turns” value ([1]; 1.0 mg/kg p.o.) was 77.1* and the “minimal effective dose, contralateral rotation” value ([1]; p.o.) was 0.75 mg/kg. The Ki (PACAP) was greater than 1000 nM, the Ki (Muscarine-M4) was greater than 1000 nM and the Ki (VIP1) was greater than 1000 nM. For the same compound, the Ki (α1A-adrenergic) was 630 nM.
